The text below walks through data of US9745324B2, “Iminothiadiazepane dioxide compounds as BACE inhibitors, compositions, and their use” (Merck Sharp & Dohme Corp., priority 2013, dated 2017).

A value given as a limit tells only on which side of the number the result lay.

Test [1] has as its target soluble human BACE1 catalytic domain (Homo sapiens (Human), UniProt P56817). Nature of the test: BACE1 HTRF FRET Assay. The test is classed as biochemical. To be noted: Ki calculated from IC50 using the Cheng-Prusoff equation; QSY7-APPswe-Eu substrate, pH 5.0. From the text: Reagents: Na^+-Acetate pH 5.0; 1% Brij-35; Glycerol; Dimethyl Sulfoxide (DMSO); Recombinant human soluble BACE1 catalytic domain (>95% pure); APP Swedish mutant peptide substrate (QSY7-APP^swe-Eu): QSY7-[…]-Europium-amide (SEQ ID 1).
A homogeneous time-resolved FRET assay can be used to determine IC50 values for inhibitors of the soluble human BACE1 catalytic domain. This assay monitors the increase of 620 nm fluorescence that resulted from BACE1 cleavage of an APPswedish APP^swe mutant peptide FRET substrate (QSY7-[…]-Europium-amide (SEQ ID 1)). This substrate contains an N-terminal QSY7 moiety that serves as a quencher of the C-terminal Europium fluorophore (620 nm Em). […] Inhibition of BACE1 cleavage of the QSY7-APP^swe-Eu substrate by inhibitors is manifested as a suppression of 620 nm fluorescence.
Varying concentrations of inhibitors at 3× the final desired concentration in a volume of 10 ul are preincubated with purified human BACE1 catalytic domain (3 nM in 10 μl) for 30 minutes at 30° C. in reaction buffer containing 20 mM Na-Acetate pH 5.0, 10% glycerol, 0.1% Brij-35 and 7.5% DSMO. Reactions are initiated by addition of 10 μl of 600 nM QSY7-APP^swe-Eu substrate (200 nM final) to give a final reaction volume of 30 μl in a 384 well Nunc HTRF plate. The reactions are incubated at 30° C. for 1.5 hours. The 620 nm fluorescence is then read on a Rubystar HTRF plate reader (BMG Labtechnologies) using a 50 millisecond delay followed by a 400 millisecond acquisition time window. Inhibitor IC50 values are derived from non-linear regression analysis of concentration response curves.

The target of test [2] is purified human autoBACE-2 (Homo sapiens, UniProt Q9Y5Z0). Nature of the test: BACE-2 Assay (BACE-HTRF assay). The settings on record: Ki calculated from IC50 using the Cheng-Prusoff equation; QSY7-EISEVNLDAEFC-Eu-amide substrate, pH 5.0; read-out: BACE2 Ki. The test is classed as biochemical. The method, then:
DMSO is present at 5% final concentration in the assay. Following laser excitation of sample wells at 320 nm, the fluorescence signal at 620 nm is collected for 400 ms following a 50 μs delay on a RUBYstar HTRF plate reader (BMG Labtechnologies). Raw RFU data is normalized to maximum (1.0 nM BACE/DMSO) and minimum (no enzyme/DMSO) RFU values. […] The Ki values are calculated from the IC50 using the Cheng-Prusoff equation.

soluble human BACE1 catalytic domain, sequence (P56817 75-416): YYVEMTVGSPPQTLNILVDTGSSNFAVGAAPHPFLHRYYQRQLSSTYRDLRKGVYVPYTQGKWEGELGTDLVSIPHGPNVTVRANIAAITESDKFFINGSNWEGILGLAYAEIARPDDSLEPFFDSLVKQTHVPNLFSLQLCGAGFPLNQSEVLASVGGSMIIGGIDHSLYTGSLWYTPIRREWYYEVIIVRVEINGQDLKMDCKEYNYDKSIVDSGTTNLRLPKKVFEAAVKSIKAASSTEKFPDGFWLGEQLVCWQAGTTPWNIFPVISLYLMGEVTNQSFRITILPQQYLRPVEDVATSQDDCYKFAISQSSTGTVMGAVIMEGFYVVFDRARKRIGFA
purified human autoBACE-2, sequence (Q9Y5Z0 63-518 limits assumed): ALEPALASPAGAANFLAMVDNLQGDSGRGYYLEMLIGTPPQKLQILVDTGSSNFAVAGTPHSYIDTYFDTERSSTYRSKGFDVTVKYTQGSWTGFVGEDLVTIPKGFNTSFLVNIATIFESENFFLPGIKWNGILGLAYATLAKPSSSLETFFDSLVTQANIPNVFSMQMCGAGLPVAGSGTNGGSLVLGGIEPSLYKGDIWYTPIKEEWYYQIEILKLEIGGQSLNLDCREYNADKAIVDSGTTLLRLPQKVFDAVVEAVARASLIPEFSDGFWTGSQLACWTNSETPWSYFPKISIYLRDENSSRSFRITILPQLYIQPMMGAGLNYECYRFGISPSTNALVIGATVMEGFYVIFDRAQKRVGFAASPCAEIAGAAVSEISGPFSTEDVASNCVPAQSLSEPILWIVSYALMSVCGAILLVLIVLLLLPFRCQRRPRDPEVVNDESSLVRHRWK

A word on the Ki: it is a dissociation constant, usually derived from enzyme kinetics or from competition with a known ligand. As to `COc1cnc(C(=O)Nc2ccc(F)c([C@]3(C)CN(C)S(=O)(=O)C(C)(C)C(=N)N3)c2)cn1` [Example 1, N-{4-fluoro-3-[(4R)-6-imino-2,4,7,7-tetramethyl-1,1-dioxido-1,2,5-thiadiazepan-4-yl]phenyl}-5-methoxypyrazine-2-carboxamide], the Ki in test [1] is 37 nM; in test [2], 102 nM. For `CN1C[C@@](C)(c2cc(NC(=O)c3ccn(C(F)F)n3)ccc2F)NC(=N)C(C)(C)S1(=O)=O` [Example 2, 1-(difluoromethyl)-N-{4-fluoro-3-[(4R)-6-imino-2,4,7,7-tetramethyl-1,1-dioxido-1,2,5-thiadiazepan-4-yl]phenyl}-1H-pyrazole-3-carboxamide], in that order: 46 nM and 6 nM. For `CN1C[C@@](C)(c2cc(NC(=O)c3ccc(F)cn3)ccc2F)NC(=N)C(C)(C)S1(=O)=O` [Example 3, 5-fluoro-N-{4-fluoro-3-[(4R)-6-imino-2,4,7,7-tetramethyl-1,1-dioxido-1,2,5-thiadiazepan-4-yl]phenyl}pyridine-2-carboxamide], in that order: 54 nM and 13 nM. For `CN1C[C@@](C)(c2cc(NC(=O)c3ccc(OC(F)F)cn3)ccc2F)NC(=N)C(C)(C)S1(=O)=O` [Example 4, 5-(difluoromethoxy)-N-{4-fluoro-3-[(4R)-6-imino-2,4,7,7-tetramethyl-1,1-dioxido-1,2,5-thiadiazepan-4-yl]phenyl}pyridine-2-carboxamide], in that order: 32 nM and 144 nM. Consider `CN1C[C@@](C)(c2cc(NC(=O)c3ccc(C(F)(F)F)cn3)ccc2F)NC(=N)C(C)(C)S1(=O)=O` [Example 5, N-{4-fluoro-3-[(4R)-6-imino-2,4,7,7-tetramethyl-1,1-dioxido-1,2,5--thiadiazepan-4-yl]phenyl}-5-(trifluoromethyl)pyridine-2-carboxamide], for which the Ki in test [1] was 59 nM; in test [2] it was 115 nM. For the compound `COc1ccc(C(=O)Nc2ccc(F)c([C@]3(C)CN(C)S(=O)(=O)C(C)(C)C(=N)N3)c2)nc1` [Example 6, N-{4-fluoro-3-[(4R)-6-imino-2,4,7,7-tetramethyl-1,1-dioxido-1,2,5-thiadiazepan-4-yl]phenyl}-5-methoxypyridine-2-carboxamide], the Ki in test [1] is 33 nM; in test [2], 44 nM. `CN1C[C@@](C)(c2cc(NC(=O)c3ccc(Cl)cn3)ccc2F)NC(=N)C(C)(C)S1(=O)=O` [Example 7, 5-chloro-N-{4-fluoro-3-[(4R)-6-imino-2,4,7,7-tetramethyl-1,1-dioxido-1,2,5-thiadiazepan-4-yl]phenyl}pyridine-2-carboxamide]: in test [2], the Ki is 8 nM. Turning to `CN1C[C@@](C)(c2cc(NC(=O)c3ccc(C#N)cn3)ccc2F)NC(=N)C(C)(C)S1(=O)=O` [Example 8, 5-cyano-N-{4-fluoro-3-[(4R)-6-imino-2,4,7,7-tetramethyl-1,1-dioxido-1,2,5-thiadiazepan-4-yl]phenyl}pyridine-2-carboxamide], the inhibitory constant (Ki) in test [1] was 22 nM; in test [2], 32 nM. For `COc1cnc(C(=O)Nc2ccc(F)c([C@]3(C)CN(C)S(=O)(=O)C(C)(C)C(=N)N3)c2)c(C)c1` [Example 9, N-{4-fluoro-3-[(4R)-6-imino-2,4,7,7-tetramethyl-1,1-dioxido-1,2,5-thiadiazepan-4-yl]phenyl}-5-methoxy-3-methylpyridine-2-carboxamide], in that order: 68 nM and 32 nM. For `COc1cnc(C(=O)Nc2ccc(F)c([C@]3(C)CN(C)S(=O)(=O)C(C)(C)C(=N)N3)c2)c(C)n1` [Example 10, N-{4-fluoro-3-[(4R)-6-imino-2,4,7,7-tetramethyl-1,1-dioxido-1,2,5-thiadiazepan-4-yl]phenyl}-5-methoxy-3-methylpyrazine-2-carboxamide], in that order: 62 nM and 59 nM. For `Cc1cc(C#N)cnc1C(=O)Nc1ccc(F)c([C@]2(C)CN(C)S(=O)(=O)C(C)(C)C(=N)N2)c1` [Example 11, 5-cyano-N-{4-fluoro-3-[(4R)-6-imino-2,4,7,7-tetramethyl-1,1-dioxido-1,2,5-thiadiazepan-4-yl]phenyl}-3-methylpyridine-2-carboxamide], in that order: 24 nM and 28 nM. Regarding `CN1C[C@@](C)(c2cc(NC(=O)c3cnc(OCC(F)(F)F)cn3)ccc2F)NC(=N)C(C)(C)S1(=O)=O` [Example 12, N-{4-fluoro-3-[(4R)-6-imino-2,4,7,7-tetramethyl-1,1-dioxido-1,2,5-thiadiazepan-4-yl]phenyl}-5-(2,2,2-trifluoroethoxy)pyrazine-2-carboxamide], the inhibitory constant (Ki) is 17 nM in test [1] and 171 nM in test [2]. As for `CN1C[C@@](C)(c2cc(NC(=O)c3cnccn3)ccc2F)NC(=N)C(C)(C)S1(=O)=O` [Example 13, N-{4-fluoro-3-[(4R)-6-imino-2,4,7,7-tetramethyl-1,1-dioxido-1,2,5-thiadiazepan-4-yl]phenyl}pyrazine-2-carboxamide], the Ki in test [1] was 263 nM; in test [2] it was 110 nM. For `CN1C[C@@](C)(c2cc(NC(=O)c3cnc(OCCF)cn3)ccc2F)NC(=N)C(C)(C)S1(=O)=O` [Example 14, 5-(2-fluoroethoxy)-N-{4-fluoro-3-[(4R)-6-imino-2,4,7,7-tetramethyl-1,1-dioxido-1,2,5-thiadiazepan-4-y]phenyl}pyrazine-2-carboxamide], in that order: 52 nM and 217 nM. For the compound `Cc1nc(C(=O)Nc2ccc(F)c([C@]3(C)CN(C)S(=O)(=O)C(C)(C)C(=N)N3)c2)no1` [Example 15, N-{4-fluoro-3-[(4R)-6-imino-2,4,7,7-tetramethyl-1,1-dioxido-1,2,5-thiadiazepan-4-yl]phenyl}-5-methyl-1,2,4-oxadiazole-3-carboxamide], the Ki in test [1] was 153 nM; in test [2] it was 27 nM. For `CN1C[C@@](C)(c2cc(NC(=O)c3cnsn3)ccc2F)NC(=N)C(C)(C)S1(=O)=O` [Example 16, N-{4-fluoro-3-[(4R)-6-imino-2,4,7,7-tetramethyl-1,1-dioxido-1,2,5-thiadiazepan-4-yl]phenyl}-1,2,5-thiadiazole-3-carboxamide], in that order: 64 nM and 25 nM. Turning to `CN1C[C@@](C)(c2cc(NC(=O)c3cn4ccc(C#N)cc4n3)ccc2F)NC(=N)C(C)(C)S1(=O)=O` [Example 17, 7-cyano-N-{4-fluoro-3-[(4R)-6-imino-2,4,7,7-tetramethyl-1,1-dioxido-1,2,5-thiadiazepan-4-yl]phenyl}imidazo[1,2-a]pyridine-2-carboxamide], the Ki in test [1] is 5630 nM; in test [2], 7490 nM. For `CN1C[C@@](C)(c2cc(NC(=O)c3ccn(C)n3)ccc2F)NC(=N)C(C)(C)S1(=O)=O` [Example 18, N-{4-fluoro-3-[(4R)-6-imino-2,4,7,7-tetramethyl-1,1-dioxido-1,2,5-thiadiazepan-4-yl]phenyl}-1-methyl-1H-pyrazole-3-carboxamide], in that order: 271 nM and 42 nM.

Consider `Cc1cc(C(=O)Nc2ccc(F)c([C@]3(C)CN(C)S(=O)(=O)C(C)(C)C(=N)N3)c2)no1` [Example 19, N-{4-fluoro-3-[(4R)-6-imino-2,4,7,7-tetramethyl-1,1-dioxido-1,2,5-thiadiazepan-4-yl]phenyl}-5-methylisoxazole-3-carboxamide], for which the Ki is 1360 nM in test [1] and 347 nM in test [2]. On to `Cc1nc2ccc(C(=O)Nc3ccc(F)c([C@]4(C)CN(C)S(=O)(=O)C(C)(C)C(=N)N4)c3)cc2o1` [Example 20, N-{4-fluoro-3-[(4R)-6-imino-2,4,7,7-tetramethyl-1,1-dioxido-1,2,5-thiadiazepan-4-yl]phenyl}-2-methyl-1,3-benzoxazole-6-carboxamide], for which the Ki is 1140 nM in test [1] and over 9540 nM in test [2]. For `CN1C[C@@](C)(c2cc(NC(=O)c3ccccn3)ccc2F)NC(=N)C(C)(C)S1(=O)=O` [Example 21, N-{4-fluoro-3-[(4R)-6-imino-2,4,7,7-tetramethyl-1,1-dioxido-1,2,5-thiadiazepan-4-yl]phenyl}pyridine-2-carboxamide], in that order: 228 nM and 43 nM. For `Cc1cc(C(=O)Nc2ccc(F)c([C@]3(C)CN(C)S(=O)(=O)C(C)(C)C(=N)N3)c2)on1` [Example 22, N-{4-fluoro-3-[(4R)-6-imino-2,4,7,7-tetramethyl-1,1-dioxido-1,2,5-thiadiazepan-4-yl]phenyl}-3-methylisoxazole-5-carboxamide], in that order: 1690 nM and 1020 nM.
